Measurements published in patent publication US9913843B2, “Protein kinase C inhibitors and uses thereof” (Rigel Pharmaceuticals, Inc., priority 2012, dated 2018).
Like-named read-outs stand apart in the source and are kept apart here.

Test system: PKC mediated IL-2 production in human primary T cells
Experiment: IL-2 ELISA, human primary T cell, anti CD3+CD28+ (whole cell functional assay for PKC mediated IL-2 production)
Format: cell-based
How it was run: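 Primary human T cells (PBMC-derived, expanded on plate-bound anti-CD3/CD28 with IL-2, then IL-2-washed) were pre-incubated 1 h at 37 °C with compound, then stimulated on 1 μg/ml anti-CD3 plus 5 μg/ml anti-CD28. After 24 h at 37 °C, secreted IL-2 was measured by ELISA; counter assay used 0.5 ng/ml PMA plus 0.1 μM ionomycin (final).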

[1] = 24 h, human primary T cells stimulated with anti-CD3 + anti-CD28, IL-2 by ELISA, read-out: IC50 for blocking IL-2 production
[2] = human primary T cells stimulated with anti-CD3 + anti-CD28, 24 h, IL-2 by ELISA, 8 pt, read-out: IL2 ELISA, Human primary T cell, anti-CD3 + CD28, 8 pt (IC50)

| IC50 [1] | IC50 [2] | Structure (SMILES) |
| --- | --- | --- |
| < 30 µM | 3.55 µM | OCCOc1ccc(Nc2nccc(NC[C@@H]3CCCN4CCCC[C@H]34)n2)cc1-n1cnnn1 [Compound 141, 2-(4-((4-((((1S,9aR)-octahydro-2H-quinolizin-1-yl)methyl)amino)pyrimidin-2-yl)amino)-2-(1H-tetrazol-1-yl)phenoxy)ethan-1-ol] |
| < 30 µM | 0.224 µM | Fc1ccc(-n2nnnc2C2CC2)cc1Nc1ncc(F)c(NC[C@@H]2CCCN3CCCC[C@H]23)n1 [Compound 45, N2-(5-(5-cyclopropyl-1H-tetrazol-1-yl)-2-fluorophenyl)-5-fluoro-N4-(((1S,9aR)-octahydro-1H-quinolizin-1-yl)methyl)pyrimidine-2,4-diamine] |
| < 30 µM | 0.652 µM | CCN1C(=O)C(F)(F)Oc2cc(Nc3ncc(F)c(NC[C@@H]4CCCN5CCCC[C@H]45)n3)cnc21 [Compound 27, 7-(4-(((1S,9aR)-octahydro-1H-quinolizin-1-yl)methylamino)-5-fluoropyrimidin-2-ylamino)-4-ethyl-2,2-difluoro-2H-pyrido[3,2-b][1,4]oxazin-3(4H)-one] |
| < 30 µM | 2.19 µM | COc1cnc(Nc2cc(-n3nnn(C)c3=O)c(C3CC3)cc2F)nc1NC[C@@H]1CCCN2CCCC[C@H]12 [Compound 74, 1-(5-(4-(((1S,9aR)-octahydro-1H-quinolizin-1-yl)methylamino)-5-methoxypyrimidin-2-ylamino)-2-cyclopropyl-4-fluorophenyl)-4-methyl-1H-tetrazol-5(4H)-one] |
| < 30 µM | 0.908 µM | Cn1nnn(-c2cc(Nc3ncc(C#N)c(NC[C@@H]4CCCN5CCCC[C@H]45)n3)c(F)cc2OCC(O)(C(F)(F)F)C(F)(F)F)c1=O [Compound 134, 2-((2-fluoro-5-(4-methyl-5-oxo-4,5-dihydro-1H-tetrazol-1-yl)-4-(3,3,3-trifluoro-2-hydroxy-2-(trifluoromethyl)propoxy)phenyl)amino)-4-((((1S,9aR)-octahydro-2H-quinolizin-1-yl)methyl)amino)pyrimidine-5-carbonitrile] |
| < 30 µM | 1.14 µM | CCOC(=O)C(C)(C)Oc1cc(F)c(Nc2ncc(C#N)c(NC[C@@H]3CCCN4CCCC[C@H]34)n2)cc1-n1nnn(C)c1=O [Compound 150, ethyl 2-(4-((5-cyano-4-((((1S,9aR)-octahydro-2H-quinolizin-1-yl)methyl)amino)pyrimidin-2-yl)amino)-5-fluoro-2-(4-methyl-5-oxo-4,5-dihydro-1H-tetrazol-1-yl)phenoxy)-2-methylpropanoate] |
| < 30 µM | 0.0723 µM | N#Cc1cc(Nc2ncc(Cl)c(NC[C@@H]3CCCN4CCCC[C@H]34)n2)ccc1C1CC1 [Compound 41, 5-(4-(((1S,9aR)-octahydro-1H-quinolizin-1-yl)methylamino)-5-chloropyrimidin-2-ylamino)-2-cyclopropylbenzonitrile] |
| < 30 µM | 0.266 µM | C[C@H](O)COc1cc(F)c(Nc2ncc(F)c(NC[C@@H]3CCCN4CCCC[C@H]34)n2)cc1-n1nnn(C)c1=O [Compound 149, 1-(4-fluoro-5-((5-fluoro-4-((((1S,9aR)-octahydro-2H-quinolizin-1-yl)methyl)amino)pyrimidin-2-yl)amino)-2-((S)-2-hydroxypropoxy)phenyl)-4-methyl-1,4-dihydro-5H-tetrazol-5-one] |
| < 30 µM | 21.7 µM | O=c1[nH]c2cc(Nc3ncc(C(F)(F)F)c(NC[C@@H]4CCCN5CCCC[C@H]45)n3)ccc2o1 [Compound 112, 5-(4-(((1S,9aR)-octahydro-1H-quinolizin-1-yl)methylamino)-5-(trifluoromethyl)pyrimidin-2-ylamino)benzo[d]oxazol-2(3H)-one] |
| < 30 µM | 0.112 µM | Cc1nnnn1-c1ccc(F)c(Nc2ncc(Cl)c(NC[C@@H]3CCCN4CCCC[C@H]34)n2)c1 [Compound 36, 5-chloro-N2-(2-fluoro-5-(5-methyl-1H-tetrazol-1-yl)phenyl)-N4-(((1S,9aR)-octahydro-1H-quinolizin-1-yl)methyl)pyrimidine-2,4-diamine] |
| < 30 µM | 0.0276 µM | Cn1nnn(-c2cc(Nc3ncc(C#N)c(NC[C@@H]4CCCN5CCCC[C@H]45)n3)c(F)cc2OCC(C)(C)O)c1=O [Compound 156, 2-((2-fluoro-4-(2-hydroxy-2-methylpropoxy)-5-(4-methyl-5-oxo-4,5-dihydro-1H-tetrazol-1-yl)phenyl)amino)-4-((((1S,9aR)-octahydro-2H-quinolizin-1-yl)methyl)amino)pyrimidine-5-carbonitrile] |
| < 30 µM | 1.18 µM | O=c1[nH]c2cc(Nc3ncc(Cl)c(NC[C@@H]4CCCN5CCCC[C@H]45)n3)ccc2o1 [Compound 44, 5-(4-(((1S,9aR)-octahydro-1H-quinolizin-1-yl)methylamino)-5-chloropyrimidin-2-ylamino)benzo[d]oxazol-2(3H)-one] |
| < 30 µM | 0.201 µM | Cn1nnn(-c2cc(Nc3ncc(F)c(NC[C@@H]4CCCN5CCCC[C@H]45)n3)ccc2OC2COC2)c1=O [Compound 14, 1-(5-(4-(((1S,9aR)-octahydro-1H-quinolizin-1-yl)methylamino)-5-fluoropyrimidin-2-ylamino)-2-(oxetan-3-yloxy)phenyl)-4-methyl-1H-tetrazol-5(4H)-one] |
| < 30 µM | 1.94 µM | Cn1nnn(-c2cc(Nc3ncc(C#N)c(NC[C@@H]4CCCN5CCCC[C@H]45)n3)c(F)cc2O)c1=O [Compound 128, 2-((2-fluoro-4-hydroxy-5-(4-methyl-5-oxo-4,5-dihydro-1H-tetrazol-1-yl)phenyl)amino)-4-((((1S,9aR)-octahydro-2H-quinolizin-1-yl)methyl)amino)pyrimidine-5-carbonitrile] |
| < 30 µM | 3.81 µM | Cn1nnn(-c2cc(Nc3nccc(NC[C@@H]4CCCN5CCCC[C@H]45)n3)c(F)cc2C2CC2)c1=O [Compound 48, 1-(5-(4-(((1S,9aR)-octahydro-1H-quinolizin-1-yl)methylamino)pyrimidin-2-ylamino)-2-cyclopropyl-4-fluorophenyl)-4-methyl-1H-tetrazol-5(4H)-one] |
| < 30 µM | 2 µM | Cc1nnnn1-c1ccc(F)c(Nc2nccc(NC[C@@H]3CCCN4CCCC[C@H]34)n2)c1 [Compound 50, N2-(2-fluoro-5-(5-methyl-1H-tetrazol-1-yl)phenyl)-N4-(((1S,9aR)-octahydro-1H-quinolizin-1-yl)methyl)pyrimidine-2,4-diamine] |
| < 30 µM | 4.21 µM | Fc1cc(C2CC2)c(-n2cnnn2)cc1Nc1ncc(C(F)(F)F)c(NC[C@@H]2CCCN3CCCC[C@H]23)n1 [Compound 100, N2-(4-cyclopropyl-2-fluoro-5-(1H-tetrazol-1-yl)phenyl)-5-(trifluoromethyl)-N4-(((1S,9aR)-octahydro-1H-quinolizin-1-yl)methyl)pyrimidine-2,4-diamine] |
| < 30 µM | 0.142 µM | Cc1ccc(Nc2ncc(F)c(NC[C@@H]3CCCN4CCCC[C@H]34)n2)cc1-n1cnnn1 [Compound 4, 5-fluoro-N4-(((1S,9aR)-octahydro-1H-quinolizin-1-yl)methyl)-N2-(4-methyl-3-(1H-tetrazol-1-yl)phenyl)pyrimidine-2,4-diamine] |
| < 30 µM | 3.59 µM | COc1cc(Nc2nccc(NC[C@@H]3CCCN4CCCC[C@H]34)n2)cc(OC)c1 [Compound 57, N4-(((1S,9aR)-octahydro-1H-quinolizin-1-yl)methyl)-N2-(3,5-dimethoxyphenyl)pyrimidine-2,4-diamine] |
| < 30 µM | 0.265 µM | Cc1cnc(Nc2cc(C#N)c(C3CC3)cc2F)nc1NC[C@@H]1CCCN2CCCC[C@H]12 [Compound 69, 5-(4-(((1S,9aR)-octahydro-1H-quinolizin-1-yl)methylamino)-5-methylpyrimidin-2-ylamino)-2-cyclopropyl-4-fluorobenzonitrile] |
| < 30 µM | 0.0774 µM | CC1(C)Oc2ccc(Nc3ncc(F)c(NC[C@@H]4CCCN5CCCC[C@H]45)n3)cc2-n2nnnc21 [Compound 98, N2-(4,4-dimethyl-4H-5-oxa-1,2,3,9b-tetraaza-cyclopenta[a]naphthalen-8-yl)-5-fluoro-N4-(((1S,9aR)-octahydro-1H-quinolizin-1-yl)methyl)-pyrimidine-2,4-diamine] |
| < 30 µM | 17.1 µM | N#Cc1cccc(Nc2ncc(C(F)(F)F)c(NC[C@@H]3CCCN4CCCC[C@H]34)n2)c1 [Compound 107, 3-(4-(((1S,9aR)-octahydro-1H-quinolizin-1-yl)methylamino)-5-(trifluoromethyl)pyrimidin-2-ylamino)benzonitrile] |
| < 30 µM | 21.5 µM | COc1cc(Nc2ncc(C(F)(F)F)c(NC[C@@H]3CCCN4CCCC[C@H]34)n2)cc(-n2nnnc2C)c1 [Compound 106, 5-(trifluoromethyl)-N4-(((1S,9aR)-octahydro-1H-quinolizin-1-yl)methyl)-N2-(3-methoxy-5-(5-methyl-1H-tetrazol-1-yl)phenyl)pyrimidine-2,4-diamine] |
| < 30 µM | 0.0898 µM | C[C@H](O)COc1cc(F)c(Nc2ncc(Cl)c(NC[C@@H]3CCCN4CCCC[C@H]34)n2)cc1-n1nnn(C)c1=O [Compound 152, 1-(5-((5-chloro-4-((((1S,9aR)-octahydro-2H-quinolizin-1-yl)methyl)amino)pyrimidin-2-yl)amino)-4-fluoro-2-((S)-2-hydroxypropoxy)phenyl)-4-methyl-1,4-dihydro-5H-tetrazol-5-one] |
| < 30 µM | 1.68 µM | Cn1nnn(-c2cc(Nc3ncc(F)c(NC[C@@H]4CCCN5CCCC[C@H]45)n3)c(F)cc2C2CC2)c1=O [Compound 3, 1-(5-(4-(((1S,9aR)-octahydro-1H-quinolizin-1-yl)methylamino)-5-fluoropyrimidin-2-ylamino)-2-cyclopropyl-4-fluorophenyl)-4-methyl-1H-tetrazol-5(4H)-one] |
